Reference: patent US20230124862A1, “BISMUTH THIOL COMPOUNDS AND COMPOSITIONS AND METHODS OF TREATING MICROBIAL CO-INFECTIONS” (Microbion Corporation, priority 2020, published 2023)

How the values were obtained:
Experiment in all cases: Antifungal broth microdilution (Example 13)
Candida albicans = assay type: cell-based; conditions: 24 hr; for MIC0: complete inhibition; for MIC2: 50% inhibition
Candida glabrata = assay type: cell-based; conditions: for MIC0: complete inhibition; for MIC2: 50% inhibition
Candida krusei = assay type: cell-based; conditions: for MIC0: complete inhibition; for MIC2: 50% inhibition
Candida auris = assay type: cell-based; conditions: for MIC0: complete inhibition; for MIC2: 50% inhibition
Aspergillus spp. = assay type: cell-based, A. niger, A. terreus, A. fumigatus, A. flavus; conditions: complete inhibition, comparator, time not stated
[1] = C. albicans ATCC 90028, Susceptible
[2] = C. albicans ATCC 204276, MICA-R
[3] = C. albicans ATCC MYA-2732, FLU-R, VORI-I
[4] = C. albicans MMX 7053, Susceptible
[5] = C. albicans MMX 7067, FLU-R, VORI-R
[6] = C. albicans MMX 7403, Susceptible
[7] = C. albicans MMX 7424, CASP-R, MICA-R
[8] = C. albicans MMX 7430, Susceptible
[9] = C. albicans MMX 7445, FLU-R, VORI-R
[10] = C. glabrata ATCC 90030, Susceptible
[11] = C. glabrata ATCC MYA-2950, Susceptible
[12] = C. glabrata MMX 7087, Susceptible
[13] = C. glabrata MMX 7103, CASP-R, MICA-R
[14] = C. glabrata MMX 7111, Susceptible
[15] = C. glabrata MMX 7285, CASP-R, MICA-R
[16] = C. glabrata MMX 7307, CASP-R, MICA-R, FLU-R
[17] = C. glabrata MMX 7549, Susceptible
[18] = C. krusei ATCC 14243, Susceptible
[19] = C. krusei ATCC 96685, Susceptible
[20] = C. krusei MMX 7125, Susceptible
[21] = C. krusei MMX 7128, Susceptible
[22] = C. krusei MMX 7141, Susceptible
[23] = C. krusei MMX 7155, Susceptible
[24] = C. krusei MMX 7563, Susceptible
[25] = C. krusei MMX 9878, MICA-I, VORI-I
[26] = C. auris MMX 9863, FLU-R, VORI-R
[27] = C. auris MMX 9864, FLU-R, VORI-R
[28] = C. auris MMX 9865, FLU-R, VORI-R
[29] = C. auris MMX 9866, FLU-R, VORI-R
[30] = C. auris MMX 9867, FLU-R, VORI-R
[31] = C. auris MMX 9868, FLU-R, VORI-R
[32] = C. auris MMX 9869, FLU-R, VORI-R
[33] = C. auris MMX 9870, FLU-R, VORI-R

`C[C@@H]1[C@H](O)[C@@H](C)/C=C/C=C/C=C/C=C/C=C/C=C/C=C/[C@H](O[C@@H]2O[C@H](C)[C@@H](O)[C@H](N)[C@@H]2O)C[C@@H]2O[C@](O)(C[C@@H](O)C[C@@H](O)[C@H](O)CC[C@@H](O)C[C@@H](O)CC(=O)O[C@H]1C)C[C@H](O)[C@H]2C(=O)O` [AMP B] showed an MIC0 (Candida albicans; [1]) of 0.25 µg/mL, an MIC0 (Candida albicans; [2]) of 0.25 µg/mL and an MIC0 (Candida albicans; [3]) of 0.25 µg/mL. The MIC0 (Candida albicans; [4]) was 0.12 µg/mL, the MIC0 (Candida albicans; [5]) was 0.25 µg/mL and the MIC0 (Candida albicans; [6]) was 0.25 µg/mL. For the same compound, the MIC0 (Candida albicans; [7]) was 0.25 µg/mL, the MIC0 (Candida albicans; [8]) was 0.25 µg/mL and the MIC0 (Candida albicans; C. albicans MMX 7437, FLU-I) was 0.25 µg/mL. The MIC0 (Candida albicans; [9]) was 0.12 µg/mL, the MIC0 (Candida glabrata; [10]) was 0.25 µg/mL and the MIC0 (Candida glabrata; [11]) was 0.12 µg/mL. It also gave an MIC0 (Candida glabrata; [12]) of 0.12 µg/mL, an MIC0 (Candida glabrata; C. glabrata MMX 7093, FLU-R) of 0.25 µg/mL and an MIC0 (Candida glabrata; C. glabrata MMX 7101, FLU-R) of 0.25 µg/mL. It also gave an MIC0 (Candida glabrata; [13]) of 0.25 µg/mL, an MIC0 (Candida glabrata; [14]) of 0.25 µg/mL and an MIC0 (Candida glabrata; [15]) of 0.25 µg/mL. The MIC0 (Candida glabrata; [16]) was 0.25 µg/mL, the MIC0 (Candida glabrata; [17]) was 0.25 µg/mL and the MIC0 (Candida krusei; C. krusei ATCC 6258, MICA-I) was 0.5 µg/mL. It also gave an MIC0 (Candida krusei; [18]) of 0.25 µg/mL, an MIC0 (Candida krusei; [19]) of 0.5 µg/mL and an MIC0 (Candida krusei; [20]) of 0.5 µg/mL. For the same compound, the MIC0 (Candida krusei; [21]) was 0.5 µg/mL, the MIC0 (Candida krusei; [22]) was 0.25 µg/mL and the MIC0 (Candida krusei; C. krusei MMX 7153, MICA-R) was 0.5 µg/mL. For the same compound, the MIC0 (Candida krusei; [23]) was 0.25 µg/mL, the MIC0 (Candida krusei; [24]) was 0.5 µg/mL and the MIC0 (Candida krusei; [25]) was 0.5 µg/mL. For the same compound, the MIC0 (Candida auris; C. auris MMX 9862, Susceptible) was 0.25 µg/mL, the MIC0 (Candida auris; [26]) was 0.12 µg/mL and the MIC0 (Candida auris; [27]) was 0.25 µg/mL. It also gave an MIC0 (Candida auris; [28]) of 0.25 µg/mL, an MIC0 (Candida auris; [29]) of 0.5 µg/mL and an MIC0 (Candida auris; [30]) of 0.5 µg/mL. The MIC0 (Candida auris; [31]) was 0.25 µg/mL, the MIC0 (Candida auris; [32]) was 1 µg/mL and the MIC0 (Candida auris; [33]) was 1 µg/mL. It also gave an MIC0 (Candida auris; C. auris MMX 9871, Susceptible) of 1 µg/mL, an MIC0 (Aspergillus spp.; A. flavus ATCC 22546) of 1 µg/mL and an MIC0 (Aspergillus spp.; A. flavus ATCC 204304) of 1 µg/mL. It also gave an MIC0 (Aspergillus spp.; A. flavus MMX 7935) of 1 µg/mL, an MIC0 (Aspergillus spp.; A. fumigatus ATCC 204305) of 1 µg/mL and an MIC0 (Aspergillus spp.; A. fumigatus ATCC MYA-3626) of 1 µg/mL. The MIC0 (Aspergillus spp.; A. fumigatus MMX 5934) was 1 µg/mL, the MIC0 (Aspergillus spp.; A. fumigatus MMX 5938) was 1 µg/mL and the MIC0 (Aspergillus spp.; A. fumigatus MMX 5939) was 1 µg/mL. For the same compound, the MIC0 (Aspergillus spp.; A. niger ATCC 29508) was 0.25 µg/mL and the MIC0 (Aspergillus spp.; A. terreus MMX 8229) was 0.25 µg/mL.
`C[C@@H](c1ncncc1F)[C@](O)(Cn1cncn1)c1ccc(F)cc1F` [VORI] showed an MIC2 (Candida albicans; [1]) of at most 0.008 µg/mL, an MIC2 (Candida albicans; [2]) of at most 0.008 µg/mL and an MIC2 (Candida albicans; [3]) of 0.5 µg/mL. For the same compound, the MIC2 (Candida albicans; [4]) was at most 0.008 µg/mL, the MIC2 (Candida albicans; [5]) was over 8 µg/mL and the MIC2 (Candida albicans; [6]) was at most 0.008 µg/mL. The MIC2 (Candida albicans; [7]) was at most 0.008 µg/mL, the MIC2 (Candida albicans; [8]) was at most 0.008 µg/mL and the MIC2 (Candida albicans; C. albicans MMX 7437, FLU-I) was 0.12 µg/mL. The MIC2 (Candida albicans; [9]) was over 8 µg/mL, the MIC2 (Candida glabrata; [10]) was 0.12 µg/mL and the MIC2 (Candida glabrata; [11]) was 0.12 µg/mL. It also gave an MIC2 (Candida glabrata; [12]) of 0.03 µg/mL, an MIC2 (Candida glabrata; C. glabrata MMX 7093, FLU-R) of 2 µg/mL and an MIC2 (Candida glabrata; C. glabrata MMX 7101, FLU-R) of 2 µg/mL. It also gave an MIC2 (Candida glabrata; [13]) of 0.12 µg/mL, an MIC2 (Candida glabrata; [14]) of 0.06 µg/mL and an MIC2 (Candida glabrata; [15]) of 1 µg/mL. It also gave an MIC2 (Candida glabrata; [16]) of 4 µg/mL, an MIC2 (Candida glabrata; [17]) of 0.06 µg/mL and an MIC2 (Candida krusei; C. krusei ATCC 6258, MICA-I) of 0.12 µg/mL. It also gave an MIC2 (Candida krusei; [18]) of 0.06 µg/mL, an MIC2 (Candida krusei; [19]) of 0.5 µg/mL and an MIC2 (Candida krusei; [20]) of 0.25 µg/mL. The MIC2 (Candida krusei; [21]) was 0.12 µg/mL, the MIC2 (Candida krusei; [22]) was 0.12 µg/mL and the MIC2 (Candida krusei; C. krusei MMX 7153, MICA-R) was 0.25 µg/mL. It also gave an MIC2 (Candida krusei; [23]) of 0.25 µg/mL, an MIC2 (Candida krusei; [24]) of 0.25 µg/mL and an MIC2 (Candida krusei; [25]) of 1 µg/mL. For the same compound, the MIC2 (Candida auris; C. auris MMX 9862, Susceptible) was 0.03 µg/mL, the MIC2 (Candida auris; [26]) was over 8 µg/mL and the MIC2 (Candida auris; [27]) was 7 µg/mL. It also gave an MIC2 (Candida auris; [28]) of 8 µg/mL, an MIC2 (Candida auris; [29]) of 8 µg/mL and an MIC2 (Candida auris; [30]) of 8 µg/mL. The MIC2 (Candida auris; [31]) was over 8 µg/mL, the MIC2 (Candida auris; [32]) was 2 µg/mL and the MIC2 (Candida auris; [33]) was 4 µg/mL. It also gave an MIC2 (Candida auris; C. auris MMX 9871, Susceptible) of 1 µg/mL, an MIC0 (Aspergillus spp.; A. flavus ATCC 22546) of 1 µg/mL and an MIC0 (Aspergillus spp.; A. flavus ATCC 204304) of 2 µg/mL. The MIC0 (Aspergillus spp.; A. flavus MMX 7935) was 0.5 µg/mL, the MIC0 (Aspergillus spp.; A. fumigatus ATCC 204305) was 0.5 µg/mL and the MIC0 (Aspergillus spp.; A. fumigatus ATCC MYA-3626) was 0.5 µg/mL. It also gave an MIC0 (Aspergillus spp.; A. fumigatus MMX 5934) of 0.25 µg/mL, an MIC0 (Aspergillus spp.; A. fumigatus MMX 5938) of 0.25 µg/mL and an MIC0 (Aspergillus spp.; A. fumigatus MMX 5939) of 7 µg/mL. For the same compound, the MIC0 (Aspergillus spp.; A. niger ATCC 29508) was 0.5 µg/mL and the MIC0 (Aspergillus spp.; A. terreus MMX 8229) was 0.25 µg/mL.
